Activity calls are given as the source filed them. The calls are words filed in the database; no cut-off is given here.
Key:
[1] = system: HT-29; test: Induction of cell cycle arrest in human HT-29 cells assessed as decrease in cell level at S phase after 24 to 48 hrs by propidium iodide staining-based flow cytometric analysis; format: functional
[2] = system: A549; test: Inhibition of DNA synthesis in human A549 cells assessed as BrdU incorporation after 48 hrs by ELISA; format: functional, cell-based
[3] = system: A549; test: Decrease in cyclin D1 expression in human A549 cells at 50 uM after 3 to 24 hrs by Western blot analysis; format: functional, cell-based
[4] = system: C6; test: Induction of cell cycle arrest in rat C6 cells assessed as decrease in cell level at G2M phase after 24 to 48 hrs by propidium iodide staining-based flow cytometric analysis; format: functional
[5] = system: C6; test: Increase in phosphorylated p38 level in rat C6 cells after 0.5 to 3 hrs by Western blot analysis; format: cell-based
[6] = target: T1, Mitogen-activated protein kinase; ERK1/ERK2 (Homo sapiens) (UniProt P27361+P28482); test: Effect on ERK1/2 phosphorylation in human HT-29 cells at 10 to 50 uM after 0.5 to 24 hrs by Western blot analysis; format: cell-based
[7] = system: A549; test: Induction of cell cycle arrest in human A549 cells assessed as decrease in cell level at S phase after 24 to 48 hrs by propidium iodide staining-based flow cytometric analysis; format: functional
[8] = system: A549; test: Effect on c-myc expression in human A549 cells at 10 to 50 uM after 0.5 to 24 hrs by Western blot analysis; format: functional, cell-based
[9] = Cytotoxicity against HSF assessed as cell viability at 10 to 100 uM after 24 hrs by LDH assay; conditions: human
[10] = target: T2, MAP kinase p38 (Homo sapiens) (UniProt O15264+Q15759+Q16539+P53778); test: Increase in phosphorylated p38 level in human HT-29 cells after 0.5 to 24 hrs by Western blot analysis; format: cell-based
[11] = target: T2, MAP kinase p38 (Homo sapiens); test: Increase in phosphorylated p38 level in human A549 cells after 0.5 hrs by Western blot analysis; format: cell-based
[12] = system: C6; test: Effect on CREB expression in rat C6 cells at 10 to 50 uM after 0.5 to 24 hrs by Western blot analysis; format: functional, cell-based
[13] = system: C6; test: Decrease in cyclin D1 expression in rat C6 cells at 50 uM after 0.5 to 24 hrs by Western blot analysis; format: functional, cell-based
[14] = system: A549; test: Effect on CREB expression in human A549 cells at 10 to 50 uM after 0.5 to 24 hrs by Western blot analysis; format: functional, cell-based
[15] = system: C6; test: Induction of cell cycle arrest in rat C6 cells assessed as decrease in cell level at S phase after 24 to 48 hrs by propidium iodide staining-based flow cytometric analysis; format: functional
[16] = system: A549; test: Induction of cell cycle arrest in human A549 cells assessed as decrease in cell level at G2M phase after 24 to 48 hrs by propidium iodide staining-based flow cytometric analysis; format: functional
[17] = system: A549; test: Induction of cell cycle arrest in human A549 cells assessed as accumulation at G0/G1 phase after 24 to 48 hrs by propidium iodide staining-based flow cytometric analysis; format: functional
[18] = target: T2, MAP kinase p38 (Homo sapiens); test: Increase in phosphorylated p38 level in human A549 cells at 10 to 50 uM after 24 hrs by Western blot analysis; format: cell-based
[19] = system: C6; test: Inhibition of DNA synthesis in rat C6 cells assessed as BrdU incorporation after 48 hrs by ELISA; format: functional, cell-based
[20] = system: HT-29; test: Inhibition of DNA synthesis in human HT-29 cells assessed as BrdU incorporation after 48 hrs by ELISA; format: functional, cell-based
[21] = system: C6; test: Antiproliferative activity against rat C6 cells at 25 to 50 uM after 48 hrs by MTT assay in presence of p38 siRNA; format: functional, cell-based
[22] = Cytotoxicity against rat FaO cells assessed as cell viability at 10 to 100 uM after 24 hrs by LDH assay; format: cell-based
[23] = system: C6; test: Antiproliferative activity against rat C6 cells after 96 hrs by MTT assay; format: functional, cell-based
[24] = Cytotoxicity against rat FaO cells assessed as cell viability at 100 uM after 24 hrs by LDH assay; format: cell-based
[25] = system: C6; test: Increase in phosphorylated p38 level in rat C6 cells at 10 to 50 uM after 24 hrs by Western blot analysis; format: cell-based
[26] = system: HT-29; test: Induction of cell cycle arrest in human HT-29 cells assessed as decrease in cell level at G2M phase after 24 to 48 hrs by propidium iodide staining-based flow cytometric analysis; format: functional
[27] = target: Mitogen-activated protein kinase 1 and 3 (ERK2 and ERK1) (Rattus norvegicus) (UniProt P63086+P21708); test: Effect on ERK1/2 phosphorylation in rat C6 cells at 10 to 50 uM after 0.5 to 24 hrs by Western blot analysis; format: cell-based
[28] = system: C6; test: Induction of cell cycle arrest in rat C6 cells assessed as accumulation at G0/G1 phase after 24 to 48 hrs by propidium iodide staining-based flow cytometric analysis; format: functional
[29] = system: HT-29; test: Decrease in cyclin D1 expression in human HT-29 cells at 50 uM after 3 to 24 hrs by Western blot analysis; format: functional, cell-based
[30] = target: T1, Mitogen-activated protein kinase; ERK1/ERK2 (Homo sapiens); test: Effect on ERK1/2 phosphorylation in human A549 cells at 10 to 50 uM after 0.5 to 24 hrs by Western blot analysis; format: cell-based
[31] = system: HT-29; test: Antiproliferative activity against human HT-29 cells after 96 hrs by MTT assay; format: functional, cell-based
[32] = system: HT-29; test: Induction of cell cycle arrest in human HT-29 cells assessed as accumulation at G0/G1 phase at 50 uM after 24 to 48 hrs by propidium iodide staining-based flow cytometric analysis; format: functional
[33] = Cytotoxicity against rat OLN93 cells assessed as cell viability at 10 to 100 uM after 24 hrs by LDH assay; format: cell-based
[34] = system: A549; test: Antiproliferative activity against human A549 cells after 96 hrs by MTT assay; format: functional, cell-based
[35] = system: HT-29; test: Effect on c-myc expression in human HT-29 cells at 10 to 50 uM after 0.5 to 24 hrs by Western blot analysis; format: functional, cell-based
[36] = system: HT-29; test: Effect on CREB expression in human HT-29 cells at 10 to 50 uM after 0.5 to 24 hrs by Western blot analysis; format: functional, cell-based
[37] = system: C6; test: Effect on c-myc expression in rat C6 cells at 10 to 50 uM after 0.5 to 24 hrs by Western blot analysis; format: functional, cell-based

T1 sequence (P27361 whole entry, looked up): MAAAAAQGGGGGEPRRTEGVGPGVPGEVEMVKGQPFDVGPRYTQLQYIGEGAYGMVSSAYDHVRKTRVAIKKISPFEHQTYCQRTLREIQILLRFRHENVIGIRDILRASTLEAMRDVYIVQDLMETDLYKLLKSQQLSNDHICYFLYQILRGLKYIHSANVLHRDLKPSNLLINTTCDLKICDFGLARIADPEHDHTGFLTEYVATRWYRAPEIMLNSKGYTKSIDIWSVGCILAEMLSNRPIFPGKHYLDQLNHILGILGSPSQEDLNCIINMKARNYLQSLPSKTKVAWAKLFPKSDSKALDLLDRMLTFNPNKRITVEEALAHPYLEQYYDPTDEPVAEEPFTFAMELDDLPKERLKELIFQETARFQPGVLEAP
T1 sequence (P28482 whole entry, looked up): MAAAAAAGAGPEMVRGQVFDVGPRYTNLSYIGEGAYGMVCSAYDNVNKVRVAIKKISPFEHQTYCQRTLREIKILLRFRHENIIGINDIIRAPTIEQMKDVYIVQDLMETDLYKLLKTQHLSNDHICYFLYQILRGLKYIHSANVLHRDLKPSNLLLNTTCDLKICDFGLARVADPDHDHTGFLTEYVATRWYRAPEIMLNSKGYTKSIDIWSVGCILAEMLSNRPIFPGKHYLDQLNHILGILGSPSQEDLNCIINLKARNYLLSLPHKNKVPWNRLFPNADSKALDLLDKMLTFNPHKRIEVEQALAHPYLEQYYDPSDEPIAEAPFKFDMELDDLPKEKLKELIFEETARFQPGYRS
Chain of Mitogen-activated protein kinase 1 and 3 (ERK2 and ERK1) (Rattus norvegicus) (P21708 whole entry, looked up): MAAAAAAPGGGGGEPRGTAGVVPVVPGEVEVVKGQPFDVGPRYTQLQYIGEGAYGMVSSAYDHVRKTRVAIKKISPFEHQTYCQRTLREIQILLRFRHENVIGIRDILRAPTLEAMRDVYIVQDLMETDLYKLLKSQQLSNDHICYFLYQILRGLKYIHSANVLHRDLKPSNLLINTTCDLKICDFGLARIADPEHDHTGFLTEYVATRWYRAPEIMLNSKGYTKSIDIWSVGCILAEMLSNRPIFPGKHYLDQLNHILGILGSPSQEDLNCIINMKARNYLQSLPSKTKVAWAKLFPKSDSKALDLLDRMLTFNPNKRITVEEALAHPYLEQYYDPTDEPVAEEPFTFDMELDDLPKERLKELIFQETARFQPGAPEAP
Chain of Mitogen-activated protein kinase 1 and 3 (ERK2 and ERK1) (Rattus norvegicus) (P63086 whole entry, looked up): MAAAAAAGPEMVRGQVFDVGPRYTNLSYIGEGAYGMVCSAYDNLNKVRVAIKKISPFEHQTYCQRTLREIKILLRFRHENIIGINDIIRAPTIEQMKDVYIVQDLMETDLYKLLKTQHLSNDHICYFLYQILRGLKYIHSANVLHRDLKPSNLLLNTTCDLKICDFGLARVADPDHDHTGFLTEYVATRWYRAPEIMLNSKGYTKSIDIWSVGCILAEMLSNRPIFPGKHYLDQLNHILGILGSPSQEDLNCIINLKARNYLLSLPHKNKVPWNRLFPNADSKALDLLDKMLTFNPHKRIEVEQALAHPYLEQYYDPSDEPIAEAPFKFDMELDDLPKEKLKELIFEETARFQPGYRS

In the case of `CC(C)(C)c1cc2nc(-c3cc(Cl)c(O)cc3O)sc(=O)c2s1`, the Activity [1] is reported as “Dose-dependent effect”, the inhibition [2] is reported as “Dose-dependent effect” and the Activity [3] is reported as “Active”. The Activity [4] was “Dose-dependent effect”, the Activity [5] was “Dose-dependent effect” and the Activity [6] was “inactive”. For the same compound, the Activity [7] was “Dose-dependent effect”, the Activity [8] was “inactive” and the Activity [9] was “Non-toxic”. The Activity [10] was “Dose-dependent effect”, the Activity [11] was “Dose-dependent effect” and the Activity [12] was “inactive”. For the same compound, the Activity [13] was “Active”, the Activity [14] was “inactive” and the Activity [15] was “Dose-dependent effect”. The Activity [16] was “Dose-dependent effect”, the Activity [17] was “Dose-dependent effect” and the Activity [18] was “inactive”. The inhibition [19] was “Dose-dependent effect”, the inhibition [20] was “Dose-dependent effect” and the Activity [21] was “inactive”. The Activity [22] was “Non-toxic”, the Activity [23] was “Dose-dependent effect” and the IC50 ([23]; C6, 96 h) was 87.4 µM. The Activity [24] was “Toxic”, the Activity [25] was “inactive” and the Activity [26] was “Dose-dependent effect”. For the same compound, the Activity [27] was “inactive”, the Activity [28] was “Dose-dependent effect” and the Activity [29] was “Active”. The Activity [30] was “inactive”, the Activity [31] was “Dose-dependent effect” and the IC50 ([31]; HT-29, 96 h) was 38.6 µM. The Activity [32] was “Dose-dependent effect”, the Activity [33] was “Non-toxic” and the Activity [34] was “Dose-dependent effect”. The IC50 ([34]; A549, 96 h) was 32.9 µM, the Activity [35] was “inactive” and the Activity [36] was “inactive”. For the same compound, the Activity [37] was “inactive”.
